Test results as given in patent US8288432B2, “Tetrahydroindole derivatives as NADPH oxidase inhibitors” (Genkyotex SA, priority 2007, dated 2012).

Experiments:
Format in all cases: cell-based, human
[1] = test system: NOX activity (ROS in cells); experiment: Chemiluminescence (luminol) measurement of ROS in cells; details: 'usually'
Protocol: 3. Chemiluminescence (Luminol)
ROS was measured using the chemiluminescent probe luminol. Cells were cultured and plated as for Amplex Red except that the Amplex Red agent was replaced by 10 μg/mL luminol (Sigma 09235). Light emission was recorded continuously at 37° C. for 60 minutes using the luminescence function of the FluoStar Optima fluorescent plate reader. The mean of the four blank values was subtracted from each corrected value for each time point. NOX activities were expressed as % of the activity in control cells. Residual activity of DPI-treated cells was usually <10%.

[2] = test system: NOX activity in DMSO-differentiated HL60 cells; experiment: Amplex Red measurement of extracellular hydrogen peroxide (NOX activity) in DMSO-differentiated HL60 cells; details: DPI 10 μM, 'usually'
Protocol: Human acute myeloid leukemia cell line HL-60 was cultured in RPMI 1640 (Invitrogen) supplemented with 10% heat-inactivated calf serum, 2 mM glutamine, 100 U/mL penicillin (Sigma), and 100 μg streptomycin (Sigma) at 37° C. under a humidified atmosphere of 5% CO2. HL60 differentiation to the neutrophil phenotype was triggered by adding Me2SO (final concentration 1.25% v/v for 6 days) to the culture medium.
Extracellular hydrogen peroxide was measured using Amplex UltraRed (Molecular Probes). Cells were trypsinized (1× Trypsin-EDTA), collected by centrifugation, and resuspended in HBSS supplemented with 1% glucose. Cells were seeded into black 96-well plates at a density of 50'000 cells in 200 μl testing buffer (HBSS 1% glucose containing 0.005 U/mL horseradish peroxidase (Roche) and 50 μM Amplex Red in the presence or absence of compounds according to the invention. As a control, DPI was included at a final concentration of 10 μM The plates were placed in the fluorescent Optima Fluorescent plate reader and kept at 37° C. during 20 min. Fluorescence was measured for […] with excitation and emission wavelengths of 544 and 590 nm respectively. NOX activities were expressed as % of the activity in control cells. […]
The table 1 below summarizes the percentage of inhibition of NOX activity as measured by Amplex Red using DMSO-differentiated HL60 cells as described above: […]

NOX activity in HUVEC = experiment: H2DCF-DA (DCF fluorescence) ROS measurement in TGF-β stimulated HUVEC; details: 'usually'
Protocol: Human Umbilical Vein Endothelial Cells (HUVEC)
HUVEC are cultured in endothelial basal medium supplemented with hydrocortisone (1 μg/mL, CalbioChem), bovine brain extract (12 μg/mL), gentamicin (50 μg/mL, CalbioChem), amphotericin B (50 ng/mL, CalBioChem EGF (10 ng/mL, and 10% FCS until the fourth passage. When the fifth passage was started, cells were cultured with a lower concentration of FCS (2%) in the absence of EGF, if not indicated otherwise. All experiments were done with cells of the fifth passage. The cells were incubated with OxLDL (oxidized low-density lipoprotein) or its buffer as control for 24 h, before detection of O2^− formation.
4. 2′,7′-dichlorodihydrofluorescein diacetate (H2DCF-DA)
HUVEC were plated on coverslips and made quiescent overnight in 0.5% BSA before stimulation with TGF-β. Cells were loaded for 10 minutes with 5 μM CM-H2DCFDA in phenol-red-free medium in the dark and then treated with TGF-β (R&D Systems) in the presence or absence of compounds according to the invention. […] DCF fluorescence was visualized at an excitation wavelength of 488 nm and emission at 515 to 540 nm. […] For calculation, the absorbance at […] was normalized to absorbance at […] for each individual well. […] NOX activities were expressed as % of the activity in control cells. […]

[3] = test system: NOX activity (superoxide formation in cells); experiment: Nitroblue tetrazolium (NBT) test of intracellular and extracellular superoxide in cell cultures; details: DPI 10 μM, 'usually'
Protocol: The activity of the compounds according to the invention may be tested for their activity in the inhibition or reduction of formation of reactive oxygen species (ROS) from oxygen in cells. The activity of the compounds is tested in the following cell cultures by different techniques such as nitroblue tetrazolium, Amplex Red, Chemiluminescence (Luminol) and 2′,7′-dichlorodihydrofluorescein diacetate (H2DCF-DA) according to the protocols detailed below.
Human microglia cell line (HMC3, human microglia clone 3) (Janabi et al, 1995, Neurosci Lett 195:105) were cultured in MEM (Eagle's minimum essential medium) containing 10% FBS with 50 U/mL penicillin G sodium 50 μg/mL streptomycin sulfate, and incubated at 37° C. for 24 hours. IFN-γ (human IFN-γ, Roche. 11 040 596 001) was added to the culture medium for a final concentration of 10 ng/mL 24 h, before detection of O2^− formation. […]
Intracellular and extracellular superoxide was measured by a colorimetric technique using a quantitative nitroblue tetrazolium (NBT) test. SOD-inhibitable conversion of NBT to formazan, a fine blue precipitate, in the presence of superoxide anion was measured using Fluostar Optima spectrometer (BMG labtech). […] The absorption was measured at 630 nm. For calculation, the absorbance at 630 nm was normalized for each individual well. […] NOX activities were expressed as % of the activity in control cells. […]

Measured: Residual activity of DPI-treated cells (NOX activity as % of the activity in control cells)

c1ccc([I+]c2ccccc2)cc1 [DPI, Diphenyliodonium]
< 10%: all assays above
